Drawing on ChEMBL document CHEMBL4041466, “Synthesis and evaluation of new benzodioxole-based dithiocarbamate derivatives as potential anticancer agents and hCA-I and hCA-II inhibitors” (Eur J Med Chem, 2017), this text covers IC50 for ten molecules.

Converted amounts (≈) assume the structure as drawn.

For experiment [1], the system named is C6. Briefly: Antiproliferative activity against rat C6 cells after 24 hrs by MTT assay. The following applies: C6, 24 h.
For experiment [2], the system named is A549. Nature of the experiment: Antiproliferative activity against human A549 cells after 24 hrs by MTT assay. Conditions: A549, 24 h.

As for `O=C(CSC(=S)NN1CCN(c2ccccc2)CC1)NCc1ccc2c(c1)OCO2`, the IC50 was 163 µg/mL (≈ 367 µM) in experiment [1] and above 1000 µg/mL in experiment [2].

Take `CC1CCN(NC(=S)SCC(=O)NCc2ccc3c(c2)OCO3)CC1`: the figures for the IC50 in experiment [1] and in experiment [2] were 567 µg/mL (≈ 1490 µM) and 810 µg/mL (≈ 2120 µM), respectively.

On to `CN1CCN(NC(=S)SCC(=O)NCc2ccc3c(c2)OCO3)CC1`, for which the concentration for half-maximal inhibition (IC50) is 167 µg/mL (≈ 436 µM) in experiment [1] and above 1000 µg/mL in experiment [2].

For `O=C(CSC(=S)NN1CCN(c2ncccn2)CC1)NCc1ccc2c(c1)OCO2`, the results for the IC50 in experiment [1] and in experiment [2] were 48.3 µg/mL (≈ 108 µM) and 833 µg/mL (≈ 1870 µM), respectively.

Take `CCN1CCN(NC(=S)SCC(=O)NCc2ccc3c(c2)OCO3)CC1`: the values for the IC50 in experiment [1] and in experiment [2] were 157 µg/mL (≈ 395 µM) and 850 µg/mL (≈ 2140 µM), respectively.

As for `O=C(CSC(=S)NN1CCOCC1)NCc1ccc2c(c1)OCO2`, the IC50 in experiment [1] was determined as 207 µg/mL (≈ 559 µM); in experiment [2], 700 µg/mL (≈ 1890 µM).

On to `COc1ccc(N2CCN(NC(=S)SCC(=O)NCc3ccc4c(c3)OCO4)CC2)cc1`, for which the values for the IC50 in experiment [1] and in experiment [2] were 58.3 µg/mL (≈ 123 µM) and above 1000 µg/mL, respectively.

With `O=C(CSC(=S)NN1CCCCC1)NCc1ccc2c(c1)OCO2`, the results for the IC50 in experiment [1] and in experiment [2] were 633 µg/mL (≈ 1720 µM) and 875 µg/mL (≈ 2380 µM), respectively.

As for `O=C(CSC(=S)NN1CCN(c2ccc([N+](=O)[O-])cc2)CC1)NCc1ccc2c(c1)OCO2`, the IC50 is 23.3 µg/mL (≈ 47.7 µM) in experiment [1] and above 1000 µg/mL in experiment [2].

For the molecule `O=C(CSC(=S)NN1CCSCC1)NCc1ccc2c(c1)OCO2`, the 50% inhibitory concentration (IC50) in experiment [1] was 220 µg/mL (≈ 571 µM); in experiment [2], above 1000 µg/mL.
